Results as given in PubChem BioAssay (NCI).
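How tested: cells in 96-well plates exposed to compound for 48 hours at five concentrations. The concentration for 50% growth inhibition is given as GI50. TGI: concentration producing complete growth inhibition.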

Assays:
Test in all cases: NCI anticancer screen, dose series, 48 h
[1] = test system: OVCAR-5 ovarian
[2] = test system: KM20L2 colon
[3] = test system: COLO 205 colon
[4] = test system: SF-539 CNS
[5] = test system: NCI-H460 lung
[6] = test system: UACC-62 melanoma
[7] = test system: SNB-78 CNS
[8] = test system: CCRF-CEM leukemia
[9] = test system: HL-60(TB) leukemia
[10] = test system: OVCAR-8 ovarian
[11] = test system: SK-OV-3 ovarian
[12] = test system: EKVX NSCLC
[13] = test system: OVCAR-3 ovarian
[14] = test system: SNB-75 CNS
[15] = test system: HOP-92 NSCLC
[16] = test system: HCT-116 colon
[17] = test system: SN12C renal
[18] = test system: OVCAR-4 ovarian
[19] = test system: A498 renal
[20] = test system: HCC-2998 colon
[21] = test system: HCT-15 colon
[22] = test system: RPMI-8226 leukemia
[23] = test system: DMS 273 small cell lung
[24] = test system: SNB-19 CNS
[25] = test system: ACHN renal
[26] = test system: MOLT-4 leukemia
[27] = test system: HT29 colon
[28] = test system: M14 melanoma
[29] = test system: HOP-18 NSCLC
[30] = test system: NCI-H23 lung
[31] = test system: LXFL 529 NSCLC
[32] = test system: SK-MEL-5 melanoma
[33] = test system: SW-620 colon
[34] = test system: M19-MEL melanoma
[35] = test system: TK-10 renal
[36] = test system: DMS 114 small cell lung
[37] = test system: K-562 leukemia
[38] = test system: LOX IMVI melanoma
[39] = test system: IGROV1 ovarian
[40] = test system: SK-MEL-2 melanoma
[41] = test system: A549 NSCLC
[42] = test system: 786-0 renal
[43] = test system: SF-295 CNS
[44] = test system: KM12 colon
[45] = test system: UO-31 renal
[46] = test system: SF-268 CNS
[47] = test system: U251 CNS
[48] = test system: CAKI-1 renal
[49] = test system: RXF 393 renal
[50] = test system: NCI-H226 lung
[51] = test system: MALME-3M melanoma
[52] = test system: SK-MEL-28 melanoma
[53] = test system: UACC-257 melanoma
[54] = test system: T-47D breast
[55] = test system: MDA-MB-231 breast
[56] = test system: HS 578T breast
[57] = test system: PC-3 prostate
[58] = test system: NCI/ADR-RES ovarian
[59] = test system: DLD-1 colon
[60] = test system: HOP-62 NSCLC
[61] = test system: MCF7 breast
[62] = test system: SR leukemia
[63] = test system: MDA-MB-435
[64] = test system: NCI-H522 lung
[65] = test system: DU-145 prostate
[66] = test system: RXF-631 renal
[67] = test system: MDA-N
[68] = test system: BT-549 breast
[69] = test system: XF 498 CNS

Structure (SMILES): CN(C)c1cc[c]([Sn]([c]2ccc(N(C)C)cc2)([c]2ccc(N(C)C)cc2)[c]2ccc(N(C)C)cc2)cc1
- GI50 [1]: 16.2 µM
- TGI [1]: 33.2 µM
- GI50 [2]: 4.3 µM
- TGI [2]: 14.8 µM
- GI50 [3]: 4.19 µM
- TGI [3]: 17.7 µM
- GI50 [4]: 15.8 µM
- TGI [4]: 33.4 µM
- GI50 [5]: 12 µM
- TGI [5]: 28.1 µM
- GI50 [6]: 3.68 µM
- TGI [6]: 17.4 µM
- GI50 [7]: 3.82 µM
- TGI [7]: 11.5 µM
- GI50 [8]: 1.26 µM
- TGI [8]: 5.72 µM
- GI50 [9]: 1.89 µM
- TGI [9]: 6.93 µM
- GI50 [10]: 9.57 µM
- TGI [10]: 56.3 µM
- GI50 [11]: 28 µM
- TGI [11]: 49.5 µM
- GI50 [12]: 6.74 µM
- TGI [12]: 28 µM
- GI50 [13]: 3.38 µM
- TGI [13]: 18.9 µM
- GI50 [14]: 4.36 µM
- TGI [14]: 17.2 µM
- GI50 [15]: 8.08 µM
- TGI [15]: 20.5 µM
- GI50 [16]: 3.94 µM
- TGI [16]: 13.9 µM
- GI50 [17]: > 100 µM
- TGI [17]: > 100 µM
- GI50 [18]: 7.65 µM
- TGI [18]: 20.7 µM
- GI50 [19]: 7.47 µM
- TGI [19]: 20.3 µM
- GI50 [20]: 4.32 µM
- TGI [20]: 18.9 µM
- GI50 [21]: > 100 µM
- TGI [21]: > 100 µM
- GI50 [22]: 1.55 µM
- TGI [22]: 4.76 µM
- GI50 [23]: 4.76 µM
- TGI [23]: 16.4 µM
- GI50 [24]: 10.7 µM
- TGI [24]: 23 µM
- GI50 [25]: 14.5 µM
- TGI [25]: 34.2 µM
- GI50 [26]: 1.93 µM
- TGI [26]: 6.22 µM
- GI50 [27]: 2.91 µM
- TGI [27]: 12.7 µM
- GI50 [28]: 9.18 µM
- TGI [28]: 21.6 µM
- GI50 [29]: 8.77 µM
- TGI [29]: 32.9 µM
- GI50 [30]: 5.88 µM
- TGI [30]: 32.3 µM
- GI50 [31]: 3.09 µM
- TGI [31]: 12.9 µM
- GI50 [32]: 2.85 µM
- TGI [32]: 14.2 µM
- GI50 [33]: 4.66 µM
- TGI [33]: 20.5 µM
- GI50 [34]: 5.17 µM
- TGI [34]: 24.4 µM
- GI50 [35]: 15.7 µM
- TGI [35]: 31.4 µM
- GI50 [36]: 3.15 µM
- TGI [36]: 13.8 µM
- GI50 [37]: 2.02 µM
- TGI [37]: 7.33 µM
- GI50 [38]: 2.89 µM
- GI50 [39]: 5.25 µM
- TGI [39]: 19.6 µM
- GI50 [40]: 6.83 µM
- TGI [40]: 29.3 µM
- GI50 [41]: 13.8 µM
- TGI [41]: 37.5 µM
- GI50 [42]: 5.36 µM
- TGI [42]: 19.3 µM
- GI50 [43]: 10.9 µM
- TGI [43]: 25.7 µM
- GI50 [44]: 5.88 µM
- TGI [44]: 22.7 µM
- GI50 [45]: 8.76 µM
- TGI [45]: 21.1 µM
- GI50 [46]: 3.67 µM
- TGI [46]: 25.4 µM
- GI50 [47]: 8.02 µM
- TGI [47]: 21.2 µM
- GI50 [48]: 5.13 µM
- TGI [48]: 19.4 µM

Structure (SMILES): C/C(N=NC(=S)N(C)C)=C1\C=CC=CN1O
- TGI [1]: > 100 µM
- TGI [2]: > 100 µM
- TGI [49]: > 100 µM
- TGI [3]: > 100 µM
- GI50 [4]: < 0.1 µM
- TGI [4]: > 100 µM
- TGI [5]: > 100 µM
- TGI [50]: > 100 µM
- TGI [6]: > 93 µM
- TGI [51]: > 67.2 µM
- TGI [7]: > 100 µM
- TGI [8]: > 63.5 µM
- TGI [52]: > 100 µM
- TGI [9]: > 53 µM
- TGI [53]: > 100 µM
- TGI [10]: > 94.1 µM
- TGI [11]: > 100 µM
- TGI [12]: > 100 µM
- TGI [13]: > 100 µM
- TGI [14]: > 100 µM
- TGI [15]: > 100 µM
- TGI [16]: > 100 µM
- TGI [54]: > 100 µM
- TGI [17]: > 100 µM
- TGI [18]: > 100 µM
- TGI [19]: > 100 µM
- TGI [20]: > 44.9 µM
- TGI [55]: > 100 µM
- TGI [21]: > 84.1 µM
- TGI [56]: > 100 µM
- TGI [22]: > 70.4 µM
- TGI [57]: > 100 µM
- TGI [23]: > 100 µM
- TGI [24]: > 100 µM
- TGI [25]: > 100 µM
- TGI [58]: 21.1 µM
- TGI [26]: > 56.4 µM
- TGI [27]: > 100 µM
- TGI [59]: > 21.2 µM
- TGI [28]: > 100 µM
- TGI [60]: > 47.3 µM
- TGI [29]: > 100 µM
- TGI [30]: > 100 µM
- TGI [61]: > 100 µM
- TGI [31]: > 100 µM
- TGI [32]: > 100 µM
- TGI [62]: > 100 µM
- TGI [63]: > 100 µM
- TGI [33]: > 100 µM
- TGI [34]: > 100 µM
- TGI [35]: > 100 µM
- TGI [64]: > 56.2 µM
- TGI [65]: > 100 µM
- TGI [66]: > 100 µM
- TGI [67]: > 100 µM
- TGI [37]: > 100 µM
- TGI [38]: > 100 µM
- TGI [39]: > 100 µM
- TGI [68]: > 100 µM
- TGI [40]: > 56.2 µM
- TGI [41]: > 100 µM
- TGI [42]: > 52.2 µM
- TGI [43]: > 100 µM
- TGI [44]: > 100 µM
- TGI [45]: > 97.4 µM
- TGI [46]: > 100 µM
- TGI [47]: > 100 µM
- TGI [48]: > 100 µM

Structure (SMILES): C/C(CC(=O)NCCc1ccccc1)=N\NC(=O)C[n+]1ccccc1
- TGI [1]: > 100 µM
- TGI [2]: > 100 µM
- TGI [49]: > 100 µM
- TGI [3]: > 100 µM
- TGI [4]: > 100 µM
- TGI [5]: > 100 µM
- TGI [50]: > 100 µM
- TGI [6]: > 100 µM
- TGI [51]: > 100 µM
- TGI [7]: > 100 µM
- TGI [52]: > 100 µM
- TGI [9]: > 100 µM
- TGI [53]: > 100 µM
- TGI [10]: > 100 µM
- TGI [11]: > 100 µM
- TGI [12]: > 100 µM
- TGI [13]: > 100 µM
- TGI [14]: > 100 µM
- TGI [15]: > 100 µM
- TGI [16]: > 100 µM
- TGI [19]: > 100 µM
- TGI [20]: > 100 µM
- TGI [21]: > 100 µM
- TGI [22]: > 100 µM
- TGI [23]: > 100 µM
- TGI [25]: > 100 µM
- TGI [26]: > 100 µM
- TGI [27]: > 100 µM
- TGI [59]: > 100 µM
- TGI [28]: > 100 µM
- TGI [60]: > 100 µM
- TGI [30]: > 100 µM
- TGI [31]: > 100 µM
- TGI [32]: > 100 µM
- TGI [33]: > 100 µM
- TGI [34]: > 100 µM
- TGI [35]: > 100 µM
- TGI [36]: > 100 µM
- TGI [64]: > 100 µM
- TGI [69]: > 100 µM
- TGI [66]: > 100 µM
- TGI [37]: > 100 µM
- TGI [38]: > 100 µM
- TGI [39]: > 100 µM
- TGI [40]: > 100 µM
- TGI [41]: > 100 µM
- TGI [42]: > 100 µM
- TGI [43]: > 100 µM
- TGI [44]: > 100 µM
- TGI [45]: > 100 µM
- TGI [46]: > 100 µM
- TGI [47]: > 100 µM
